The results in this text go back to US10968236B2, “TYK2 inhibitors and uses thereof” (Nimbus Lakshmi, Inc., priority 2015, dated 2021).

Experiment [1] addresses TYK2 (Homo sapiens (Human), UniProt P29597). In words: Tyk2 activity inhibition assay (radioactive kinase / Caliper assay). In kind it is biochemical. How it is done:
(§1) Peptide substrate, [KKSRGDYMTMQIG], (20 μM) is prepared in reaction buffer (20 mM Hepes pH 7.5, 10 mM MgCl2, 1 mM EGTA, 0.02% Brij35, 0.02 mg/mL BSA, 0.1 mM […], 2 mM DTT, 1% DMSO. TYK2 (Invitrogen) kinase is added, followed by compounds in DMSO. 33PATP is added to initiate the reaction in ATP at 10 μM. Kinase reaction is incubated for 120 min at room temp and reactions are spotted onto P81 ion exchange paper (Whatman #3698-915), and then washed extensively in 0.75% phosphoric acid, prior to reading the radioactivity counts. For JAK2 (Invitrogen) kinase assay the peptide substrate poly[Glu:Tyr] (4:1), 0.2 mg/ml is used, in the reaction carried out the same as for TYK2.
(§2) The caliper machine employs an off chip mobility shift assay to detect phosphorylated peptide substrates from kinase assays, using microfluidics technology. The assays are carried out at ATP concentration equivalent to the ATP Km, and at 1 mM ATP. Compounds are serially diluted in DMSO then further diluted in assay buffer (25 mM HEPES, pH 7.5, 0.01% Brij-35, 0.01% Triton, 0.5 mM EGTA). 5 ul of diluted compound was added into wells first, then 10 ul of enzyme mix was added into wells, followed by 10 uL of substrate mix (peptide and ATP in 10 mM MgCl2) to start reaction. Reaction was incubated at 28° C. for 25 min and then added 25 ul stop buffer (100 mM HEPES, 0.015% Brij-35, 50 mM EDTA), followed by reading with Caliper. JAK2 at 1 nM final concentration and TYK2 at 9.75 nM are from Carna, and substrates used are ATP at 20 and 16 uM, respectively. JAK2 assay uses peptide 22 and TYK2 uses peptide 30 (Caliper), each at 3 uM.
(§3) The compound numbers correspond to the compound numbers in Table 1. Compounds having an activity designated as “A” provided an Ki≤0.01 μM; compounds having an activity designated as “B” provided an Ki of 0.01-0.1 μM; compounds having an activity designated as “C” provided an Ki of 0.1-1.0 μM; and compounds having an activity designated as “D” provided an Ki≥1.0 μM.

For experiment [2], the target named is JAK2 (Homo sapiens (Human), UniProt O60674). Description: JAK2 activity inhibition assay (radioactive kinase / Caliper assay). It counts as biochemical. Here is the method:
as §1, §2, §3

The test system of experiment [3] is GM-CSF induced pSTAT5 (JAK2-pSTAT5). Description: GM-CSF Induced pSTAT5 in human PBMC. It counts as cell-based. To be noted: GM-CSF 5 ng/mL. How it is done: GM-CSF Induced pSTAT5 in human PBMC. Cells are prepared for analysis as in the above procedure and 15 μl of GM-CSF (final concentration 5 ng/mL) is added for 20 minutes prior to pSTAT5 and total STAT5 analysis using cell lysates prepared and analyzed by MSD reagents as per manufacturer protocol. The final DMSO concentration of compound in the assay is 0.1%.
(§4) The compound numbers correspond to the compound numbers in Table 1. Compounds having an activity designated as “A” provided an EC50≤2 μM; compounds having an activity designated as “B” provided a EC50 of 2-20 μM, and compounds having an activity designated as “C” provided an EC50>20 μM.

The subject of experiment [4] is IL-12 induced pSTAT4 (Tyk2-pSTAT4). Description: IL-12 Induced pSTAT4 in human PBMC. It counts as cell-based. To be noted: IL-12 1.7 ng/mL. How it is done: IL-12 Induced pSTAT4 in human PBMC. Human PBMC are isolated from buffy coat and are stored frozen for assays as needed. Cells for assay are thawed and resuspended in complete media containing serum, then cells are diluted to 1.67 E6 cells/ml so that 120 μl per well is 200,000 cells. 15 μl of compound or DMSO is added to the well at the desired concentrations and incubated at 1 hr at 37 C. 15 μl of stimulus (final concentration of 1.7 ng/mL IL-12) is added for 30 minutes prior to pSTAT4 and total STAT4 analysis using cell lysates prepared and analyzed by MSD reagents as per manufacturer protocol. The final DMSO concentration of compound in the assay is 0.1%.
as §4

Structures can show the parent of a compound that is named as a salt.

Chain of TYK2 (P29597 whole entry): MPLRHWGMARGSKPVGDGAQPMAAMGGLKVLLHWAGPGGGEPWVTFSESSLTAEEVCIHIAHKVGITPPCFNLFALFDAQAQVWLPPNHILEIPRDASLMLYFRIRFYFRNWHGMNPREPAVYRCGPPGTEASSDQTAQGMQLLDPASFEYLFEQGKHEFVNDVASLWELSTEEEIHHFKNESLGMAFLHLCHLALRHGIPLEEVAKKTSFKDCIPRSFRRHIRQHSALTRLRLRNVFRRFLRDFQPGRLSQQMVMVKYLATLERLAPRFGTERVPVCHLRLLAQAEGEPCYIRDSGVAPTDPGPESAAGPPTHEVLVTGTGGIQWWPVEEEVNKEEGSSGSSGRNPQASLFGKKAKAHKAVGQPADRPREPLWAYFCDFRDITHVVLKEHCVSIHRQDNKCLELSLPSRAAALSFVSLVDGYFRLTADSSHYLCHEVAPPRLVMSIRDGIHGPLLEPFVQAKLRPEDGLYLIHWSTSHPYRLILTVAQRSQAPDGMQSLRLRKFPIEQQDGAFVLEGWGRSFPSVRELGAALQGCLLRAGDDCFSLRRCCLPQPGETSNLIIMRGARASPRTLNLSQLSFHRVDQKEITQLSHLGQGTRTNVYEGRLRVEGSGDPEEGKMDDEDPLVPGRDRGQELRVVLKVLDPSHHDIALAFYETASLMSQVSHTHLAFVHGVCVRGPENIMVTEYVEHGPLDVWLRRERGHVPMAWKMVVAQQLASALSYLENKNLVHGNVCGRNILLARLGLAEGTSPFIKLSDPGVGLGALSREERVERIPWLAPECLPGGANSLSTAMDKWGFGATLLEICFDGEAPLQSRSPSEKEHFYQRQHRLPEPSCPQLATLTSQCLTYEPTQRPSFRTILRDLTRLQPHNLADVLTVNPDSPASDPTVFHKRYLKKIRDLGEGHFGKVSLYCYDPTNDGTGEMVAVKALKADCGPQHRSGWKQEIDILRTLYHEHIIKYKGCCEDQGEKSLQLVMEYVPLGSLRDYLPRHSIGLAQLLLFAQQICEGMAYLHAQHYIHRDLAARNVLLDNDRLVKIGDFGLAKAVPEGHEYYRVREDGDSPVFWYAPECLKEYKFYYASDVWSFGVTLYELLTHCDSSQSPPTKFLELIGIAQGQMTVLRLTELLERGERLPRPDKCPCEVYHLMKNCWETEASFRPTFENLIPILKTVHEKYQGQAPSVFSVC
Chain of JAK2 (O60674 whole entry): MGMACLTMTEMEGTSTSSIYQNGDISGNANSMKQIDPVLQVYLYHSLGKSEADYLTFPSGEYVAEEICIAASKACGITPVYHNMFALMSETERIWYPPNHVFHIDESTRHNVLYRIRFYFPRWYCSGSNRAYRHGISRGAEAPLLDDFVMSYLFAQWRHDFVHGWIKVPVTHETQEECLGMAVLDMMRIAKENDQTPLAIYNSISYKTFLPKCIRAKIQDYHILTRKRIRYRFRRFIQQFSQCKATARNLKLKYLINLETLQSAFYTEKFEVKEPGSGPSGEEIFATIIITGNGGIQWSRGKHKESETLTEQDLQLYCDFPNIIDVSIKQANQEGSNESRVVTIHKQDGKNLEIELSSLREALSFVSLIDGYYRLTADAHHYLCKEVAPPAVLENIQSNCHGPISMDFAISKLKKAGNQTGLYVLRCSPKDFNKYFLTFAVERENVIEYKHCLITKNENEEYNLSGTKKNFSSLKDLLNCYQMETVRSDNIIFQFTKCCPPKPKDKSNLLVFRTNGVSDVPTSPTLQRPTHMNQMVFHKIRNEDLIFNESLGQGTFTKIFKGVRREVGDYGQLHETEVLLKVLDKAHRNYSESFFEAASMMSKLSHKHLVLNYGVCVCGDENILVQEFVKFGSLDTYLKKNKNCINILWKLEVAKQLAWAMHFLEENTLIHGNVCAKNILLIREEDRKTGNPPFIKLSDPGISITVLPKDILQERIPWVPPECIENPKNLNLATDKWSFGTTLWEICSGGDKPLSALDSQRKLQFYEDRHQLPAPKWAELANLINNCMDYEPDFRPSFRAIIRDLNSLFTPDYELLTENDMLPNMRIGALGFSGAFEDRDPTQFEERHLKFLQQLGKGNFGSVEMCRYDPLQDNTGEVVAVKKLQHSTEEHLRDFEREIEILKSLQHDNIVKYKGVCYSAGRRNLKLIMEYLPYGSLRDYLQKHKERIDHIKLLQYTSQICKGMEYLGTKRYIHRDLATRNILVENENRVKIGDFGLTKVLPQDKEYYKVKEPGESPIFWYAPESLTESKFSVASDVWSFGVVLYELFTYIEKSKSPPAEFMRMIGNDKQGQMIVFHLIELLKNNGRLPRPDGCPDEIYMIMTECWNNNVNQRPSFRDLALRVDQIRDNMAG

As for `N#Cc1cccc(F)c1-c1cc(Nc2ccc(N3CCOC4(CC4)C3)nc2)c2c(n1)CNC2=O` [Compound I-79, 2-(4-((6-(4-oxa-7-azaspiro[2.5]octan-7-yl)pyridin-3-yl)amino)-5-oxo-6,7-dihydro-5H-pyrrolo[3,4-b]pyridin-2-yl)-3-fluorobenzonitrile], the figures for the Ki in experiment [1] and in experiment [2] were not above 10 nM and 10 to 100 nM, respectively. Besides, the results for the EC50 in experiment [3] and in experiment [4] were 2000 to 20000 nM and not above 2000 nM, respectively.
For `CC1(C)CNc2nc(Nc3cc(-c4c(F)cccc4F)nc4c3C(=O)NC4)ccc21` [Compound I-10, 2-(2,6-difluorophenyl)-4-((3,3-dimethyl-2,3-dihydro-1H-pyrrolo[2,3-b]pyridin-6-yl)amino)-6,7-dihydro-5H-pyrrolo[3,4-b]pyridin-5-one], the Ki (usually the dissociation constant of the complex between target and ligand, obtained from inhibition or displacement) in experiment [1] is not above 10 nM; in experiment [2], 10 to 100 nM. For the same molecule, the concentration for a half-maximal effect (EC50) in experiment [3] and in experiment [4] was not above 2000 nM throughout.
With `CC1(C)COc2cc(Nc3cc(-c4c(F)cccc4F)nc4c3C(=O)NC4)ccc21` [Compound I-70, 2-(2,6-difluorophenyl)-4-((3,3-dimethyl-2,3-dihydrobenzofuran-6-yl)amino)-6,7-dihydro-5H-pyrrolo[3,4-b]pyridin-5-one], the Ki in experiment [1] was not above 10 nM; in experiment [2] it was 100 to 1000 nM. In addition, the figures for the EC50 in experiment [3] and in experiment [4] were more than 20000 nM and not above 2000 nM, respectively.
Take `C[C@](O)(c1ccc(Nc2nc(-c3c(F)cccc3F)nc3c2C(=O)NC3)cc1)C(F)(F)F` [Compound I-34, (S)-2-(2,6-difluorophenyl)-4-((4-(1,1,1-trifluoro-2-hydroxy-propan-2-yl)phenyl)amino)-6,7-dihydro-5H-pyrrolo[3,4-d]pyrimidin-5-one]: the Ki in experiment [2] fell in the range of 10 to 100 nM. In addition, the results for the EC50 in experiment [3] and in experiment [4] were 2000 to 20000 nM and not above 2000 nM, respectively.
As to `O=C1NCc2nc(-c3c(F)cccc3F)nc(Nc3ccc(C(=O)N4CC5CCC(C4)O5)cc3)c21` [Compound I-5, 4-((4-(8-oxa-3-azabicyclo[3.2.1]octane-3-carbonyl)phenyl)-amino)-2-(2,6-difluorophenyl)-6,7-dihydro-5H-pyrrolo[3,4-d]pyrimidin-5-one], the Ki in experiment [1] is not above 10 nM; in experiment [2], 100 to 1000 nM.
Turning to `O=C1NCc2nc(-c3c(F)cccc3F)cc(Nc3ccc(N4CCC5(CCCCO5)CC4)cn3)c21` [Compound I-53, 4-((5-(1-oxa-9-azaspiro[5.5]undecan-9-yl)pyridin-2-yl)amino)-2-(2,6-difluorophenyl)-6,7-dihydro-5H-pyrrolo[3,4-b]pyridin-5-one], the inhibition constant Ki in experiment [1] is not above 10 nM; in experiment [2], 10 to 100 nM.
Taken in the same sequence, the figures for `O=C1NCc2nc(-c3c(F)cccc3F)cc(Nc3ccc(N4CCOCC45CC5)cn3)c21` [Compound I-47, 4-((5-(7-oxa-4-azaspiro[2.5]octan-4-yl)pyridin-2-yl)amino)-2-(2,6-difluorophenyl)-6,7-dihydro-5H-pyrrolo[3,4-b]pyridin-5-one] were not above 10 nM and not above 10 nM.
In the same order, the values of `O=C1NCc2nc(-c3c(F)cccc3F)cc(Nc3ccc4c(c3)OC3(CC3)C4=O)c21` [Compound I-77, 2-(2,6-difluorophenyl)-4-((3-oxo-3H-spiro[benzofuran-2,1′-cyclopropan]-6-yl)amino)-6,7-dihydro-5H-pyrrolo[3,4-b]pyridin-5-one] are not above 10 nM and 10 to 100 nM.
Taken in the same sequence, the figures for `C[C@](N)(C(=O)O)c1ccc(Nc2nc(-c3c(F)cccc3F)nc3c2C(=O)NC3)cc1` [Compound I-46, (R)-2-amino-2-(4-((2-(2,6-difluorophenyl)-5-oxo-6,7-dihydro-5H-pyrrolo[3,4-d]pyrimidin-4-yl)amino)phenyl)propanoic acid hydro-chloride] were 10 to 100 nM and 100 to 1000 nM.
As for `N#Cc1cccc(F)c1-c1cc(Nc2ccc(N3CC[C@]4(C[C@@H](O)CO4)C3)cn2)c2c(n1)CNC2=O` [Compound I-92, 3-fluoro-2-(4-((5-((3R,5S)-3-hydroxy-1-oxa-7-azaspiro[4.4]nonan-7-yl)pyridin-2-yl)amino)-5-oxo-6,7-dihydro-5H-pyrrolo[3,4-b]pyridin-2-yl)benzonitrile], the inhibition constant (Ki) in experiment [1] is not above 10 nM; in experiment [2], 10 to 100 nM.
As to `O=C1NCc2nc(-c3c(F)cccc3F)cc(Nc3ccc4c(c3)COB4O)c21` [Compound I-61, 2-(2,6-difluorophenyl)-4-((1-hydroxy-1,3-dihydro-benzo-[c][1,2]oxaborol-5-yl)amino)-6,7-dihydro-5H-pyrrolo[3,4-b]pyridin-5-one], the Ki was 10 to 100 nM in experiment [1] and not below 1000 nM in experiment [2].
With `O=C1NCc2nc(-c3c(F)cccc3F)cc(Nc3ccc(N4C[C@H]5COC[C@H]5C4)nc3)c21` [Compound I-73, 2-(2,6-difluorophenyl)-4-((6-((3aR,6aS)-tetrahydro-1H-furo[3,4-c]pyrrol-5(3H)-yl)pyridin-3-yl)amino)-6,7-dihydro-5H-pyrrolo[3,4-b]pyridin-5-one], the Ki in experiment [1] was 10 to 100 nM; in experiment [2], not below 1000 nM.
Consider `O=C1NCc2nc(-c3c(F)cccc3F)cc(Nc3ccc4c(c3)OC(F)(F)O4)c21` [Compound I-69, 4-((2,2-difluorobenzo[d][1,3]dioxol-5-yl)amino)-2-(2,6-difluoro-phenyl)-6,7-dihydro-5H-pyrrolo[3,4-b]pyridin-5-one], for which the Ki was 10 to 100 nM in experiment [1] and not below 1000 nM in experiment [2].
Taken in the same sequence, the figures for `O=C1NCc2nc(-c3c(F)cccc3F)cc(Nc3ccc(C(O)(C(F)(F)F)C(F)(F)F)cc3)c21` [Compound I-66, 2-(2,6-difluorophenyl)-4-((4-(1,1,1,3,3,3-hexafluoro-2-hydroxy-propan-2-yl)phenyl)amino)-6,7-dihydro-5H-pyrrolo[3,4-b]pyridin-5-one] were not above 10 nM and 10 to 100 nM.
In the same order, the values of `C[C@@](N)(C(=O)O)c1ccc(Nc2nc(-c3c(F)cccc3F)nc3c2C(=O)NC3)cc1` [Compound I-45, (S)-2-amino-2-(4-((2-(2,6-difluorophenyl)-5-oxo-6,7-dihydro-5H-pyrrolo[3,4-d]pyrimidin-4-yl)amino)phenyl)propanoic acid hydrochloride] are not above 10 nM and 100 to 1000 nM.
In the same order, the values of `O=C1NCc2nc(-c3c(F)cccc3F)cc(Nc3ccc(C(=O)N4CCC5(CCCCO5)CC4)cc3)c21` [Compound I-54, 4-((4-(1-oxa-9-azaspiro[5.5]undecane-9-carbonyl)phenyl)amino)-2-(2,6-difluorophenyl)-6,7-dihydro-5H-pyrrolo[3,4-b]pyridin-5-one] are not above 10 nM and 10 to 100 nM.
Turning to `O=C1NCc2nc(-c3c(F)cccc3F)nc(Nc3ccc(C(O)C(F)(F)F)cc3)c21` (stereo not shown) [Compound I-29, 2-(2,6-difluorophenyl)-4-((4-(2,2,2-trifluoro-1-hydroxy-ethyl)phenyl)amino)-6,7-dihydro-5H-pyrrolo[3,4-d]pyrimidin-5-one], the Ki in experiment [1] was not above 10 nM; in experiment [2], 100 to 1000 nM.
Taken in the same sequence, the figures for `O=C1NCc2nc(-c3c(F)cccc3F)cc(Nc3ccc4cc[nH]c4n3)c21` [Compound I-21, 4-((1H-pyrrolo[2,3-b]pyridin-6-yl)amino)-2-(2,6-difluoro-phenyl)-6,7-dihydro-5H-pyrrolo[3,4-b]pyridin-5-one] were not above 10 nM and 10 to 100 nM.
